Source: ChEMBL document CHEMBL1201862, “PubChem BioAssay data set” (2004)
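Briefly, cells in 96-well plates were exposed to five compound concentrations for 48 h, and endpoints were estimated by linear interpolation. GI50 = concentration required for 50% inhibition of growth.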 Activity calls are given as the source filed them. Rule as the data show it: active = GI50 up to about 1.1 µM and inactive = higher.

Experiments:
Assay in all cases: NCI anticancer screen, dose series, 48 h
U-251 = test system: U-251
SF-295 = test system: SF-295
786-0 = test system: 786-0
SK-OV-3 = test system: SK-OV-3
SR = test system: SR
SK-MEL-5 = test system: SK-MEL-5
COLO 205 = test system: COLO 205
SNB-19 = test system: SNB-19
NCI-H23 = test system: NCI-H23
SNB-75 = test system: SNB-75
IGROV-1 = test system: IGROV-1
SK-MEL-28 = test system: SK-MEL-28
UACC-257 = test system: UACC-257
MOLT-4 = test system: MOLT-4
OVCAR-8 = test system: OVCAR-8
KM12 = test system: KM12
HCT-15 = test system: HCT-15

Compound | GI50 (U-251) | GI50 (SF-295) | GI50 (786-0) | GI50 (SK-OV-3) | GI50 (SR) | GI50 (SK-MEL-5) | GI50 (COLO 205) | GI50 (SNB-19) | GI50 (NCI-H23) | GI50 (SNB-75) | GI50 (IGROV-1) | GI50 (SK-MEL-28) | GI50 (UACC-257) | GI50 (MOLT-4) | GI50 (OVCAR-8) | GI50 (KM12) | GI50 (HCT-15)
COC(=O)c1c(N)n[nH]c1N | > 100 µM (inactive) | > 100 µM (inactive) | > 100 µM (inactive) | > 100 µM (inactive) | > 100 µM (inactive) | > 100 µM (inactive) | > 100 µM (inactive) | > 100 µM (inactive) | > 100 µM (inactive) | > 100 µM (inactive) | > 100 µM (inactive) | > 100 µM (inactive) | > 100 µM (inactive) | > 100 µM (inactive) | > 100 µM (inactive) | > 100 µM (inactive) | 
Clc1ccc(C(n2cc(Br)cn2)n2cc(Br)cn2)cc1 | 16.3 µM (inactive) | 15 µM (inactive) | 14.1 µM (inactive) | 35.1 µM (inactive) |  | 14 µM (inactive) | 16.1 µM (inactive) | > 10 µM (inactive) | 17.9 µM (inactive) | > 10 µM (inactive) | 18.7 µM (inactive) | 17.8 µM (inactive) | 14.7 µM (inactive) | 16.5 µM (inactive) | 18.5 µM (inactive) | 13.5 µM (inactive) | 13.8 µM
Cc1c2n(c(=O)[nH]c1=O)C1OC(CO)C(N=[N+]=[N-])C1O2 (stereo unspecified) | > 100 µM (inactive) | > 100 µM (inactive) | > 100 µM (inactive) | > 100 µM (inactive) | > 100 µM (inactive) | > 100 µM (inactive) | > 100 µM (inactive) | > 100 µM (inactive) | > 100 µM (inactive) | > 100 µM (inactive) | > 100 µM (inactive) | > 100 µM (inactive) | > 100 µM (inactive) | > 100 µM (inactive) | > 100 µM (inactive) | > 100 µM (inactive) | > 100 µM
CC1(C)c2ccccc2N2C(c3ccccc3)=NOC21C (stereo unspecified) | > 100 µM (inactive) | > 100 µM (inactive) | > 100 µM (inactive) | > 100 µM (inactive) | > 100 µM (inactive) | > 100 µM (inactive) | > 100 µM (inactive) | > 100 µM (inactive) | > 100 µM (inactive) | > 100 µM (inactive) | > 100 µM (inactive) | > 100 µM (inactive) | > 100 µM (inactive) | > 100 µM (inactive) | > 100 µM (inactive) | > 100 µM (inactive) | > 100 µM
